Results: patent US9345244B2, “Plant growth regulating compounds” (Syngenta Participations AG, priority 2011, dated 2016)

Key:
[1] = test system: Wheat (Triticum aestivum) seeds of the variety Arina; experiment: Wheat assay (plant area and root curliness); format: in vivo; conditions: wheat var. Arina seeds in mini-pouches with 5 mL compound solution; twelve days after sowing/application
Description: Two bioassays were developed in order to assay the activity of the compounds of the present invention. In the first assay, the activity of the compound was quantified in beans based on its effect on the elongation of the petiole of the second leaf. In the second assay, the compound's effect on the root growth of wheat was determined.
The test compounds were dissolved in small volumes of dimethyl sulfoxide and diluted to the appropriate concentration with water. Wheat (Triticum aestivum) seeds of the variety Arina were sown in mini-pouches (10.5×9.0 cm) containing 5 mL of the appropriate compound solution. The mini pouches were stored at 17° C. for three days to enable the seeds to germinate. Plants were then stored at 5° C. Twelve days after sowing/application, plants were removed from the mini-pouches and scanned. The effect of the compounds was quantified by determining plant (root and shoot) area and curliness of the roots (curliness is an indicator of brassinosteroid-type activity).

melting point	Structure (SMILES)	curliness of the roots (indicator of brassinosteroid-type activity) [1]
	CCOc1cc(NC(=O)CCC(=O)OC)ncc1Cl [Compound A31, Methyl 4-[(5-chloro-4-ethoxy-2-pyridyl)amino]-4-oxo-butanoate]	curly root phenotype
	CCOc1cc(NC(=O)CCC(=O)OC)ncc1Br [Compound A38, Methyl 4-[(5-bromo-4-ethoxy-2-pyridyl)amino]-4-oxo-butanoate]	curly root phenotype
129 °C	COC(=O)C(C)(C)CC(=O)Nc1ccc(C#N)cn1 [Compound B1, Methyl 4-[(5-cyano-2-pyridyl)amino]-2,2-dimethyl-4-oxo-butanoate]	
	O=C(O)CCC(=O)Nc1ccc(C(F)(F)F)cn1 [Compound A19, 4-oxo-4-[[5-(trifluoromethyl)-2-pyridyl]amino]butanoic acid]	curly root phenotype
220 to 221 °C	N#Cc1ccc(NC(=O)CCC(=O)O)nc1 [Compound A2, 4-[(5-cyano-2-pyridyl)amino]-4-oxo-butanoic acid]	curly root phenotype
246 to 248 °C	COC(=O)CCC(=O)Nc1ccc(-c2nnn[nH]2)cn1 [Compound A65, Methyl 4-oxo-4-[[5-(1H-tetrazol-5-yl)-2-pyridyl]amino]butanoate]	
	CCOc1cc(NC(=O)CCC(=O)O)ncc1Br [Compound A39, 4-[(5-bromo-4-ethoxy-2-pyridyl)amino]-4-oxo-butanoic acid]	curly root phenotype
161 to 164 °C	COC(=O)CCC(=O)Nc1ccc(C#N)cn1 [Compound A1, methyl 4-[(5-cyano-2-pyridyl)amino]-4-oxo-butanoate]	curly root phenotype
	CCOc1cc(NC(=O)CCC(=O)O)ncc1Cl [Compound A32, 4-[(5-chloro-4-ethoxy-2-pyridyl)amino]-4-oxo-butanoic acid]	curly root phenotype
215 to 218 °C	N#Cc1cc(I)cnc1NC(=O)CCC(=O)O [Compound A4, 4-[(3-cyano-5-iodo-2-pyridyl)amino]-4-oxo-butanoic acid]	
	CCOC(=O)CCC(=O)Nc1ccc(C#N)cn1 [Compound A22, Ethyl 4-[(5-cyano-2-pyridyl)amino]-4-oxo-butanoate]	curly root phenotype
